Drawing on the METLIN SMRT retention time set (Domingo-Almenara et al. 2019), this text covers RP-LC retention time for 32 compounds.

The nature of this data set: gradient 5% acetonitrile 3 min, to 50% in 2 min, to 85% in 15 min, held 3 min, 100 µL/min. As to conditions: column: Zorbax Extend-C18 2.1 x 50 mm; eluents: water / acetonitrile, 0.1% formic acid. The method, boiled down:
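Mixtures of ~100 pure standards were chromatographed on a Zorbax Extend-C18 column (2.1 × 50 mm, 1.8 μm) at 100 μL/min using water and acetonitrile, each with 0.1% formic acid. Detection used a quadrupole time-of-flight mass spectrometer in positive and negative ionization mode, and data collection spanned 3 months. Retention time was obtained from adduct peaks picked computationally and each checked manually.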
`CNC(=O)N1CCCC(c2cccc(C(=O)NCc3cccc(Br)c3)c2)C1` (configuration not stated) registered an RP-LC retention time of 819 s.

The compound `O=C(Nc1ccccc1)N1CCc2nnc(C3CC3)n2CC1` showed an RP-LC retention time of 596 s.

`O=C(Nc1cc(-c2cccnc2)no1)c1ccc2c(c1)OCO2` registered an RP-LC retention time of 710 s.

The compound `CC1(C)Cc2cccc(OCC(=O)NCCc3ccc(S(N)(=O)=O)cc3)c2O1` registered an RP-LC retention time of 694 s.

Compound `CC(=O)N1CCc2cc(N3CC(C(=O)Nc4ccccc4C)CC3=O)ccc21` (configuration not stated) yielded an RP-LC retention time of 692 s.

`Cc1cccc(-c2nc3nc(C)cc(N(CCO)CCO)n3n2)c1`: the RP-LC retention time is 615 s.

The compound `Cc1ccccc1C(=O)Nc1nc(-c2ccc3c(c2)N(C)C(=O)C(C)O3)cs1` (configuration not stated) came in with an RP-LC retention time of 1010 s.

Consider `CCN1C(=O)c2cccnc2Sc2cc(NC(=O)c3sccc3C)ccc21`, for which the RP-LC retention time is 842 s.

For the compound `Cc1cc(=O)n(CC(=O)Nc2cc(C)on2)c(N2CCc3ccccc3C2)n1`, the RP-LC retention time stood at 699 s.

Regarding `COc1ccc(OC)c(-c2ccc(SCC(=O)Nc3cc(C)no3)nn2)c1`, the RP-LC retention time was found to be 754 s.

The compound `CCc1cccc(NS(=O)(=O)c2cn(CC)c3ncccc23)c1` yielded an RP-LC retention time of 937 s.

`COc1ccc(OC)c(NC(=O)N2CCCC(C)(C(=O)NCc3ccccc3C)C2)c1` (configuration not stated) registered an RP-LC retention time of 912 s.

In turn, `CC(C)(C)n1nnnc1C1CC2(CCOCC2)C(=O)N1CCc1nc2ccccc2[nH]1` (configuration not stated) displayed an RP-LC retention time of 604 s.

As for `CCN1C(=O)COc2ccc(-c3noc(CNS(=O)(=O)c4ccc(Cl)cc4)n3)cc21`, the RP-LC retention time turned out to be 904 s.

For `O=C(c1cc2ccccc2o1)N1CCC(CNS(=O)(=O)C2CC2)CC1`, the RP-LC retention time amounted to 712 s.

`CCn1cc(-c2ccc(Cl)cc2)cc1C(=O)NC(C)c1ccccn1` (configuration not stated): the RP-LC retention time is 843 s.

Consider `O=C(c1ccco1)N1CCCC(c2ccnc(-c3ccccc3)n2)C1` (configuration not stated), for which the RP-LC retention time is 962 s.

`Cc1cc(-n2c(C)nc3ccccc3c2=O)ccc1NC(=O)C(C)Oc1ccccc1` (configuration not stated): the RP-LC retention time was 876 s.

For `COc1ccccc1CNC(=O)C1CCCN(c2cnc3nc(C)c(C)nc3c2)C1` (configuration not stated), the RP-LC retention time came to 727 s.

`COc1cccc(CNC(=O)C2CCCN(c3ncnc4c3nc3n4CCCCC3)C2)c1` (configuration not stated): the RP-LC retention time is 736 s.

As to `CC(C)n1c(=O)sc2cc(S(=O)(=O)N3CCC(C(=O)NC4CCCCCCC4)CC3)ccc21`, the RP-LC retention time turned out to be 1040 s.

In turn, `CC1=C(C(=O)Nc2ccccc2C)C(c2ccc(Cl)cc2Cl)NC(=O)N1` (configuration not stated) had an RP-LC retention time of 704 s.

For the compound `CCOc1ccc(-c2cc3n(n2)CCCN(C(C)=O)C3)cc1`, the RP-LC retention time worked out at 637 s.

Consider `O=C(CN1C(=O)COc2ccc(C(=O)N3CCN(c4ccc(F)cc4)CC3)cc21)N1CCCC1`, for which the RP-LC retention time was found to be 736 s.

`COc1ccc(NC(=O)C(C)n2cnc3nc4c(cc3c2=O)CCCC4)cc1OC` (configuration not stated) yielded an RP-LC retention time of 685 s.

`O=C1CC(c2noc(-c3ccc(F)cc3)n2)CN1Cc1ccccc1` (configuration not stated) registered an RP-LC retention time of 931 s.

`Cc1cc(C(=O)Nc2nnc(SCC(=O)Nc3ccccc3C(F)(F)F)s2)no1`: the RP-LC retention time is 767 s.

With `O=C(NCc1cccs1)c1c(O)c2cccnc2n(Cc2ccccc2)c1=O`, the RP-LC retention time was found to be 1310 s.

`Cc1ccc(-n2nc3c(=O)n(CCCC(=O)N4CCC(C(N)=O)CC4)nc(C)c3c2C)cc1` yielded an RP-LC retention time of 648 s.

In turn, `Cc1ccc(S(=O)(=O)NC(=O)NC2=NC(C)(C)N(c3ccc(Cl)c(Cl)c3)C(N)=N2)cc1` yielded an RP-LC retention time of 733 s.

As to `Cc1ccc(Cn2c(N3CCCC(C(=O)NC4CCCC4)C3)nc3ccsc3c2=O)cc1` (configuration not stated), the RP-LC retention time came out at 967 s.

On to `CCC(Sc1nc2cc(OC)c(OC)cc2c2nc(C)nn12)C(=O)NCc1ccco1` (configuration not stated), for which the RP-LC retention time came to 746 s.
